The text below walks through data of publication PMC6753678, “Fueling Open Innovation for Malaria Transmission-Blocking Drugs: Hundreds of Molecules Targeting Early Parasite Mosquito Stages” (Frontiers in Microbiology, 2019).

Data set [1] has as its system HepG2 cells. In words: HepG2 cytotoxicity assay. The settings on record: for IC50: read-out: HepG2 cytotoxicity assay IC50, dose response confirmation; for Pb ODA (this manuscript) HepG2 cytoxicity: HepG2 cytotoxicity listed with the Pb ODA data set (this manuscript). In outline:
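Cells at 2,500 per well in MEM with 10% fetal bovine serum and 1% NEAA were exposed to test compounds for 48 h at 37°C, 5% CO2. Viability was read by fluorescence, with percent inhibition calculated against 50 μM doxorubicin (positive) and DMSO (negative) controls.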

Data set [2] relates to 3D7-strain P. falciparum asexual parasites. In words: P. falciparum asexual growth inhibition assay (Pf GIA). The format is cell-based, Plasmodium falciparum. The settings on record: dose response confirmation; read-out: Pf asexual growth inhibition assays IC50. The method in brief:
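3D7 parasites at 0.25% parasitemia, 2% hematocrit were exposed to compounds in dose response for 72 h at 37°C under 5% CO2, 5% O2. Viability read as parasite LDH activity (nitro blue tetrazolium, A650) after freeze-thaw; inhibition scaled to chloroquine (50 μM) and DMSO controls, mean of three biological replicates.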

The test system of data set [3] is P. berghei ookinete development. The settings on record: for % inhibition, Replicate A / % inhibition, Replicate B: primary screen at 1 μM.
Where [4] appears, read: HepG2 values of the three screens unified.
Where [5] appears, read: read-out: Pb Ookinete development assay IC50, dose response confirmation.
Setting [6] is: unified HepG2 value across the three screens.
Where [7] appears, read: read-out: Pb ODA IC50, this manuscript.
The mark [8] stands for this setting: read-out: Pb ODA (this manuscript) IC50, P. berghei ookinete development assay, this manuscript.

Molecules are shown by their SMILES. Read-outs that look alike come from different tables or passages of the source.

One may read the IC50 as the concentration that inhibits the measured activity by half.

With `CC(ON1C(N)=NC(N)=NC1(C)C)c1ccccc1` (stereo not shown) [TCMDC-131596], in data set [1], the “HepG2 cytoxicity (Pb ODA, this manuscript)” value is on record as 0.0372 µM and the half-inhibitory concentration (IC50) is 0.0372 µM. The molecule further showed a Unified cytotox in data set [1] (setting [4]) of 0.0372 µM. For the same molecule, the IC50 in data set [2] turned out to be 0.014 µM. In addition, the “Is compound selective in assay? Pb ODA active?” value (from here on “Is compound selective”) in data set [3] (1: YES, 0: NO) is on record as 0 (0: NO). In addition, in data set [3], the “% inhibition, Replicate A” value was determined as 78.80% and the “% inhibition, Replicate B” value was 47.07%. Further, the 50% inhibitory concentration (IC50) in data set [3] (setting [5]) is 5.19 µM.

As for `c1ccc(CCNc2ncnc3c2[nH]c2ccccc23)cc1` [TCMDC-124578], the IC50 in data set [1] amounted to 10.6 µM; in data set [2], 0.27 µM; in data set [3] (setting [7]) it was 0.37 µM; in data set [3] (setting [5]), 0.368 µM. Moreover, the “Unified cytotox” value in data set [1] (setting [6]) was found to be 10.59 µM. The “Is compound selective” value in data set [3] (1: YES, 0: NO) was 1 (1: YES). Besides, the “% inhibition, Replicate A” value in data set [3] is listed as 104.22%. For the same molecule, the “% inhibition, Replicate B” value in data set [3] was 87.03%.

As for `COc1ccc(Nc2ncc(C#N)c(Nc3ccccc3C(N)=O)n2)cc1N1CCN(C)CC1.Cl` [TCMDC-134117], the “Pb ODA (this manuscript) HepG2 cytoxicity” value in data set [1] is on record as 8.32 µM. Besides, the IC50 in data set [1] came to 8.32 µM; in data set [2], 0.063 µM; in data set [3] (setting [8]) it was 0.0255 µM; in data set [3] (setting [5]) it was 0.026 µM. Also, in data set [3], the “Is compound selective” value is 1 (key: 1: YES; 0: NO). Besides, the “% inhibition, Replicate A” value in data set [3] was 92.85%. Also, the “% inhibition, Replicate B” value in data set [3] is 98.42%.

With `CS(=O)(=O)Cc1ccc(Nc2ncc(Cl)c(Nc3cccnc3C(N)=O)n2)cc1.Cl` [TCMDC-134165], the “Pb ODA (this manuscript) HepG2 cytoxicity” value in data set [1] is recorded as 100.00 µM. For the same molecule, the IC50 worked out at 100 µM in data set [1], 0.969 µM in data set [2], 0.7 µM in data set [3] (setting [8]) and 0.699 µM in data set [3] (setting [5]). For the same molecule, in data set [3], the “Is compound selective” value is on record as 1 (key: 1: YES; 0: NO). The “% inhibition, Replicate A” value in data set [3] amounted to 41.15%. Besides, the “% inhibition, Replicate B” value in data set [3] was 108.98%.

For `Cc1[nH]c(C)c(-c2ccc(-c3ccccc3F)nc2)c(=O)c1Cl` [TCMDC-135927], the Unified cytotox in data set [1] (setting [4]) was 100.00 µM. Also, the IC50 came out at 100 µM in data set [1], 0.339 µM in data set [2], 0.43 µM in data set [3] (setting [7]) and 0.432 µM in data set [3] (setting [5]). In data set [3] (1: YES, 0: NO), the “Is compound selective” value is recorded as 1 (1: YES). In addition, the “% inhibition, Replicate A” value in data set [3] is 86.73%. Moreover, the “% inhibition, Replicate B” value in data set [3] was found to be 100.97%.

For the molecule `CN1CCN(c2ccc(Nc3ncc(C#N)c(Nc4ccccc4C(N)=O)n3)cc2)CC1.Cl` [TCMDC-134116], in data set [1], the “Pb ODA (this manuscript) HepG2 cytoxicity” value came out at 2.43 µM and the IC50 is 2.43 µM. For the same molecule, the IC50 in data set [2] was 0.028 µM. In data set [3], the “Is compound selective” value is on record as 1 (key: 1: YES; 0: NO); the “% inhibition, Replicate A” value is 134.36%; the “% inhibition, Replicate B” value was found to be 120.59%. Moreover, in data set [3] (setting [8]), the IC50 was 0.0316 µM. For the same molecule, in data set [3] (setting [5]), the IC50 is 0.032 µM.

Take `NCC(NC(=O)c1ccc(-c2c[nH]c3ncccc23)s1)c1ccccc1.O=CO` (stereo not shown) [TCMDC-134154]: the IC50 in data set [1] came to 16.2 µM; in data set [2] it was 0.558 µM; in data set [3] (setting [7]), 0.96 µM; in data set [3] (setting [5]), 0.964 µM. For the same molecule, the “Unified cytotox” value in data set [1] (setting [6]) was 16.22 µM. Besides, the “Is compound selective” value in data set [3] (1: YES, 0: NO) is 1 (1: YES). Moreover, the “% inhibition, Replicate A” value in data set [3] is reported as 101.79%. Further, the “% inhibition, Replicate B” value in data set [3] came out at 81.42%.

In the case of `Cc1[nH]c(C)c(-c2ccc(OCc3cc(C(F)(F)F)cc(C(F)(F)F)c3)nc2)c(=O)c1Cl` [TCMDC-135814], the “HepG2 cytoxicity (Pb ODA, this manuscript)” value in data set [1] turned out to be 1.66 µM. Besides, in data set [1] (setting [4]), the Unified cytotox is 1.66 µM. The concentration for half-maximal inhibition (IC50) in data set [1] was found to be 1.66 µM; in data set [2], 0.185 µM; in data set [3] (setting [7]), 0.16 µM; in data set [3] (setting [5]) it was 0.161 µM. The “Is compound selective” value in data set [3] (1: YES, 0: NO) is recorded as 1 (1: YES). Moreover, the “% inhibition, Replicate A” value in data set [3] is 68.02%. In addition, the “% inhibition, Replicate B” value in data set [3] was determined as 98.05%.

`O=C(c1cc(-c2cccs2)[nH]n1)N1CCN(S(=O)(=O)c2ccc(Cl)cc2)CC1` [TCMDC-124702]: in data set [1], the “Pb ODA (this manuscript) HepG2 cytoxicity” value turned out to be 42.17 µM. Besides, the IC50 in data set [1] was found to be 42.2 µM; in data set [2], 0.027 µM; in data set [3] (setting [8]), 4.34 µM; in data set [3] (setting [5]) it was 4.34 µM. For the same molecule, the “Is compound selective” value in data set [3] is listed as 0 (key: 1: YES; 0: NO). Further, the “% inhibition, Replicate A” value in data set [3] worked out at 58.15%. Also, in data set [3], the “% inhibition, Replicate B” value is listed as 68.92%.

Consider `COc1ccc(-c2nc3c(N)nc(N)nc3nc2-c2ccccc2Cl)cc1.COc1ccc(-c2nc3nc(N)nc(N)c3nc2-c2ccccc2Cl)cc1.Cl` [TCMDC-138100], for which the half-maximal inhibitory concentration (IC50) amounted to 73.3 µM in data set [1], 1.55 µM in data set [2], 8.26 µM in data set [3] (setting [7]) and 8.26 µM in data set [3] (setting [5]). The “Unified cytotox” value in data set [1] (setting [6]) came out at 73.28 µM. The “Is compound selective” value in data set [3] (1: YES, 0: NO) is on record as 0 (0: NO). Also, the “% inhibition, Replicate A” value in data set [3] was 50.02%. Also, the “% inhibition, Replicate B” value in data set [3] amounted to 33.60%.

`CC(=O)Nc1ccc(Nc2c3ccccc3nc3ccccc23)cc1` [TCMDC-124356]: the IC50 in data set [1] turned out to be 14.1 µM; in data set [2], 1.09 µM; in data set [3] (setting [7]), 0.6 µM; in data set [3] (setting [5]) it was 0.598 µM. Moreover, the “Unified cytotox” value in data set [1] (setting [6]) is listed as 14.13 µM. Besides, in data set [3] (1: YES, 0: NO), the “Is compound selective” value is 1 (1: YES). For the same molecule, the “% inhibition, Replicate A” value in data set [3] is given as 62.81%. For the same molecule, in data set [3], the “% inhibition, Replicate B” value is on record as 63.52%.

`Cc1cc(=O)[nH]c(-n2nc(C)cc2NC(=O)C2(c3ccc(Cl)cc3)CCCC2)n1` [TCMDC-124943]: in data set [1], the “Pb ODA (this manuscript) HepG2 cytoxicity” value was determined as 3.31 µM and the 50% inhibitory concentration (IC50) was 3.31 µM. In addition, the half-maximal inhibitory concentration (IC50) in data set [2] was 0.967 µM. In addition, in data set [3], the “Is compound selective” value is recorded as 0 (key: 1: YES; 0: NO); the “% inhibition, Replicate A” value turned out to be 55.02%; the “% inhibition, Replicate B” value was found to be 44.00%. In addition, in data set [3] (setting [8]), the IC50 came out at 1.38 µM. The IC50 in data set [3] (setting [5]) was 1.38 µM.

Consider `COc1ccc(Cn2ccc3c4c(N)nc(N)nc4ccc32)cc1` [TCMDC-139862], for which the “HepG2 cytoxicity (Pb ODA, this manuscript)” value in data set [1] is 0.011 µM. The molecule further gave a Unified cytotox in data set [1] (setting [4]) of 0.011 µM. Also, the half-maximal inhibitory concentration (IC50) in data set [1] was 0.011 µM; in data set [2], less than 0.0002 µM; in data set [3] (setting [7]) it was 0.32 µM; in data set [3] (setting [5]) it was 0.315 µM. In addition, the “Is compound selective” value in data set [3] (1: YES, 0: NO) is reported as 0 (0: NO). Besides, the “% inhibition, Replicate A” value in data set [3] is reported as 43.74%. Besides, the “% inhibition, Replicate B” value in data set [3] is recorded as 74.79%.

`COc1c(F)ccc2ncc(Cl)c(CCN3CCC(NCc4ccc5c(n4)NC(=O)CS5)CC3)c12.Cl` [TCMDC-141955]: the “HepG2 cytoxicity (Pb ODA, this manuscript)” value in data set [1] is listed as 23.99 µM. In addition, in data set [1] (setting [4]), the Unified cytotox amounted to 23.99 µM. Besides, the IC50 in data set [1] was 24 µM; in data set [2], 1.19 µM; in data set [3] (setting [7]) it was 1.9 µM; in data set [3] (setting [5]), 1.9 µM. In addition, the “Is compound selective” value in data set [3] (1: YES, 0: NO) is 1 (1: YES). Also, the “% inhibition, Replicate A” value in data set [3] is on record as 54.74%. Besides, in data set [3], the “% inhibition, Replicate B” value stood at 63.10%.

Take `Cc1[nH]c(C)c(-c2ccc(CCc3cccc(C(F)(F)F)c3)nc2)c(=O)c1Cl` [TCMDC-136014]: the “HepG2 cytoxicity (Pb ODA, this manuscript)” value in data set [1] is recorded as 7.08 µM. The same molecule gave a Unified cytotox in data set [1] (setting [4]) of 7.08 µM. Besides, the IC50 in data set [1] was 7.08 µM; in data set [2] it was 0.093 µM; in data set [3] (setting [7]), 0.12 µM; in data set [3] (setting [5]), 0.123 µM. Besides, the “Is compound selective” value in data set [3] (1: YES, 0: NO) is recorded as 1 (1: YES). Further, the “% inhibition, Replicate A” value in data set [3] is reported as 91.00%. In data set [3], the “% inhibition, Replicate B” value stood at 104.63%.
